From the supplement of paper PMC10307832

Legend:
Test in all cases: relative viability (nuclei count vs DMSO), 5 days (fraction); higher = more cells survive
Trametinib = compound: CC(=O)Nc1cccc(-n2c(=O)n(C3CC3)c(=O)c3c(Nc4ccc(I)cc4F)n(C)c(=O)c(C)c32)c1 [Trametinib]
Procedure, shortened: (§1)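 In 1536-well plates, lung cancer cell lines rested overnight at 37 °C before five library-drug doses (not always all listed), √10 apart, were pinned onto vehicle-anchored plates. Nuclei were counted with MetaXpress from 4× Hoechst images taken after 5 days without medium change. Viability compares treated-well with vehicle-well nuclei as a median over plates, and plates needed control CV below 25% plus at least one doubling to pass.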

[1] = compound: CN1C=C(C2=CC=CC=C21)/C=C\3/C4=C(C=CC=N4)NC3=O
Procedure, shortened: as §1

Trametinib + Phenformin = compound: CC(=O)Nc1cccc(-n2c(=O)n(C3CC3)c(=O)c3c(Nc4ccc(I)cc4F)n(C)c(=O)c(C)c32)c1 [Trametinib] + N=C(N)NC(=N)NCCc1ccccc1 [Phenformin] (partner 250 µM)
Procedure, shortened: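 Relative viability equals treated-well nuclei counts divided by vehicle-well nuclei counts. Counts came from 4× images of lung cancer cell lines grown in 1536-well plates for 5 days after pin-tool dosing on the day after seeding. Dosing used one drug alone or a fixed anchor-drug dose plus five library-drug doses (not always all listed) in √10 steps, and values are medians of duplicate plates.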

Cell Line | relative viability (Trametinib; 0.0025 µM) | relative viability (Trametinib; 0.007906 µM) | relative viability (Trametinib; 0.02 µM, anchor plate) | relative viability (Trametinib; 0.025 µM) | relative viability (Trametinib; 0.07906 µM) | relative viability (Trametinib; 0.25 µM) | relative viability ([1]; 0.02 µM) | relative viability ([1]; 0.06325 µM) | relative viability ([1]; 0.2 µM) | relative viability ([1]; 0.6325 µM) | relative viability ([1]; 2 µM) | relative viability (Trametinib + Phenformin; first compound 0.0025 µM) | relative viability (Trametinib + Phenformin; first compound 0.007906 µM) | relative viability (Trametinib + Phenformin; first compound 0.025 µM) | relative viability (Trametinib + Phenformin; first compound 0.07906 µM) | relative viability (Trametinib + Phenformin; first compound 0.25 µM)
NCI-H661 | 1.01 | 0.975 | 0.575 | 0.899 | 0.799 | 0.724 | 0.999 | 0.986 | 0.985 | 1.06 | 0.986 | 0.298 | 0.289 | 0.257 | 0.28 | 0.246
CAL-12T | 0.904 | 0.723 | 0.369 | 0.503 | 0.51 | 0.343 | 0.894 | 0.873 | 0.98 | 0.972 | 0.924 | 0.457 | 0.376 | 0.295 | 0.267 | 0.229
HARA | 0.861 | 0.947 | 0.674 | 0.86 | 0.503 | 0.375 | 0.935 | 0.972 | 0.657 | 0.96 | 0.928 | 0.399 | 0.426 | 0.386 | 0.373 | 0.214
NCI-H596 | 0.934 | 0.872 | 0.787 | 0.802 | 0.712 | 0.47 | 0.985 | 0.998 | 0.791 | 0.982 | 0.993 | 0.713 | 0.704 | 0.485 | 0.622 | 0.411
LU99A | 0.953 | 0.829 | 0.53 | 0.551 | 0.707 | 0.681 | 0.983 | 0.845 | 0.909 | 0.937 | 0.789 | 0.895 | 0.812 | 0.642 | 0.588 | 0.455
LC-2-ad | 0.948 | 0.871 | 0.9 | 0.875 | 0.587 | 0.596 | 0.988 | 0.995 | 0.786 | 1 | 0.959 | 0.625 | 0.543 | 0.5 | 0.427 | 0.338
NCI-H1650 | 0.902 | 0.898 | 0.583 | 0.827 | 0.599 | 0.264 | 1.03 | 0.923 | 0.685 | 0.794 | 0.914 | 0.388 | 0.538 | 0.495 | 0.325 | 0.151
NCI-H1915 | 1.05 | 0.737 | 0.3 | 0.54 | 0.423 | 0.353 | 0.964 | 0.934 | 0.97 | 1.09 | 1.05 | 0.38 | 0.306 | 0.249 | 0.304 | 0.141
ABC-1 | 0.963 | 0.908 | – | 0.749 | 0.547 | 0.333 | 0.829 | 0.896 | 0.709 | 0.857 | 0.764 | 0.236 | 0.259 | 0.226 | 0.213 | 0.221
HCC-44 | 0.966 | 0.982 | 1.05 | 1.02 | 0.82 | 0.495 | 0.902 | 0.906 | 0.87 | 0.991 | 0.935 | 0.249 | 0.181 | 0.187 | 0.0805 | 0.0783
HCC-78 | 0.933 | 0.735 | 0.805 | 0.678 | 0.573 | 0.526 | 0.81 | 0.905 | 0.731 | 0.803 | 0.889 | 0.678 | 0.501 | 0.482 | 0.489 | 0.401
LXF-289 | 0.897 | 0.86 | 0.679 | 0.755 | 0.722 | 0.664 | 0.979 | 1 | 0.976 | 1 | 1.03 | 0.503 | 0.451 | 0.444 | 0.422 | 0.263
201T | 0.96 | 0.886 | 0.721 | 0.845 | 0.778 | 0.761 | 0.951 | 0.979 | 0.988 | 0.916 | 0.971 | 0.397 | 0.412 | 0.44 | 0.437 | 0.423
NCI-H1734 | 0.959 | 0.92 | 0.717 | – | 0.911 | 0.41 | 0.971 | 0.939 | – | 1.05 | 1.06 | 0.289 | 0.292 | 0.217 | 0.245 | 0.206
NCI-H1623 | 0.839 | 0.74 | – | 0.552 | 0.569 | 0.523 | 0.815 | 1.02 | 0.735 | 0.85 | 0.912 | 0.588 | 0.48 | 0.291 | 0.396 | 0.634
NCI-H2126 | 0.9 | 0.836 | 0.572 | 0.585 | 0.738 | 0.669 | 0.965 | 0.993 | 0.885 | 1.01 | 0.955 | 0.501 | 0.464 | 0.419 | 0.481 | 0.466
LOU-NH91 | 0.926 | 0.923 | 0.799 | 0.761 | 0.8 | 0.366 | 0.902 | 0.825 | 0.844 | 0.856 | 0.95 | 0.685 | 0.752 | 0.661 | 0.364 | 0.294
NCI-H1792 | 0.844 | 0.856 | 0.475 | 0.477 | 0.387 | 0.281 | 0.88 | 0.979 | 0.69 | 0.829 | 0.957 | 0.309 | 0.206 | 0.071 | 0.157 | 0.0553
NCI-H1651 | 0.942 | 0.958 | 0.837 | 0.851 | 0.837 | 0.691 | 1.07 | 0.961 | 0.957 | 0.945 | 1.06 | 0.26 | 0.293 | 0.296 | 0.288 | 0.182
A549 | 0.864 | 0.658 | – | 0.375 | 0.278 | 0.14 | 0.935 | 0.992 | 0.767 | 0.923 | 0.989 | 0.166 | 0.153 | 0.125 | 0.116 | 0.058
